Measured values from patent publication EP3915971A1, “PHENYL-S(O)N-PHENYLAMIDINES AND THE USE THEREOF AS FUNGICIDES” (Bayer Aktiengesellschaft, priority 2020, dated 2021).

Experiment: LogP measurement by HPLC on reversed phase columns (EEC directive 79/831 Annex V.A8)
Format: physicochemical
Settings: reversed phase HPLC columns
Method: Measurement of LogP values was performed according to EEC directive 79/831 Annex V.A8 by HPLC (High Performance Liquid Chromatography) on reversed phase columns with the following methods: • ^[a] LogP value is determined by measurement of LC-UV, in an acidic range, with 0.1% formic acid in water and acetonitrile as eluent (linear gradient from 10% acetonitrile to 95% acetonitrile). • ^[b] LogP value is determined by measurement of LC-UV, in a neutral range, with 0.001 molar ammonium acetate solution in water and acetonitrile as eluent (linear gradient from 10% acetonitrile to 95% acetonitrile). • ^[c] LogP value is determined by measurement of LC-UV, in an acidic range, with 0.1% phosphoric acid and acetonitrile as eluent (linear gradient from 10% acetonitrile to 95% acetonitrile).
If more than one LogP value is available within the same method, all the values are given and separated by "+". […]

[1] = method [a]: LC-UV, acidic range, 0.1% formic acid in water and acetonitrile as eluent (linear gradient 10% to 95% acetonitrile)

Row | Compound | chromatographic logP [1] | chromatographic logP (method [b]: LC-UV, neutral range, 0.001 molar ammonium acetate solution in water and acetonitrile as eluent (linear gradient 10% to 95% acetonitrile))
1 | CCN(C)C=Nc1cc(Br)c([S+]([O-])c2ccccc2)cc1C (centres unmarked) [Example I-038, N'-[4-(benzenesulfinyl)-5-bromo-2-methylphenyl]-N-ethyl-N-methylmethanimidamide] | 1 | 
2 | CCN(C)C=Nc1cc(C)c(S(=O)(=O)c2ccccc2C#N)cc1C [Example I-049, N'-[4-(2-cyanophenyl)sulfonyl-2,5-dimethylphenyl]-N-ethyl-N-methylmethanimidamide] | 1 | 
3 | CCN(C)C=Nc1cc(C)c(Sc2ccccc2C#N)cc1C(F)(F)F [Example I-104, N'-[4-[(2-cyanophenyl)thio]-5-methyl-2-(trifluoromethyl)phenyl]-N-ethyl-N-methylmethanimidamide] | 2.44 | 4.64
4 | CCN(C)C=Nc1cc(C)c([S+]([O-])c2ccccc2C)cc1C(F)(F)F (centres unmarked) [Example I-088, N-ethyl-N-methyl-N'-[5-methyl-4-(2-methylphenyl)sulfinyl-2-(trifluoromethyl)phenyl]methanimidamide] | 2.14 | 
5 | CCN(C)C=Nc1cc(Cl)c([S+]([O-])c2ccccc2Cl)cc1C (centres unmarked) [Example I-040, N'-[5-chloro-4-(2-chlorophenyl)sulfinyl-2-methylphenyl]-N-ethyl-N-methylmethanimidamide] | 1.23 | 
6 | CCN(C)C=Nc1cc(Cl)c(S(=O)(=O)c2ccccc2C#N)cc1C [Example I-053, N'-[5-chloro-4-(2-cyanophenyl)sulfonyl-2-methylphenyl]-N-ethyl-N-methylmethanimidamide] | 1.31 | 
7 | CCN(C)C=Nc1cc(C)c(S(=O)(=O)c2ccccc2)cc1C [Example I-004, N'-[4-(benzenesulfonyl)-2,5-dimethylphenyl]-N-ethyl-N-methylmethanimidamide] | 1 | 
8 | CCN(C)C=Nc1cc(C)c(S(=O)(=O)c2ccccc2C)cc1C [Example I-016, N'-[2,5-dimethyl-4-(2-methylphenyl)sulfonylphenyl]-N-ethyl-N-methylmethanimidamide] | 1.18 | 
9 | CCN(C)C=Nc1cc(Cl)c([S+]([O-])c2ccccc2C#N)cc1C (centres unmarked) [Example I-051, N'-[5-chloro-4-(2-cyanophenyl)sulfinyl-2-methylphenyl]-N-ethyl-N-methylmethanimidamide] | 0.87 | 
10 | CCN(C)C=Nc1cc(C)c([S+]([O-])c2ccccc2Cl)cc1Cl (centres unmarked) [Example I-013, N'-[2-chloro-4-(2-chlorophenyl)sulfinyl-5-methylphenyl]-N-ethyl-N-methylmethanimidamide] | 1.15 | 
11 | CCN(C)C=Nc1cc(C)c([S+]([O-])c2ccccc2C)cc1Br (centres unmarked) [Example I-063, N'-[2-bromo-5-methyl-4-(2-methylphenyl)sulfinylphenyl]-N-ethyl-N-methylmethanimidamide] | 1.15 | 
12 | CCN(C)C=Nc1cc(F)c([S+]([O-])c2ccccc2C)cc1C (centres unmarked) [Example I-032, N-ethyl-N'-[5-fluoro-2-methyl-4-(2-methylphenyl)sulfinylphenyl]-N-methylmethanimidamide] | 1 | 
13 | CCN(C)C=Nc1cc(C)c(S(=O)(=O)c2ccccc2)cc1C1CC1 [Example I-095, N'-[4-(benzenesulfonyl)-2-cyclopropyl-5-methylphenyl]-N-ethyl-N-methylmethanimidamide] | 1.24 | 
14 | CCN(C)C=Nc1cc(C)c([S+]([O-])c2ccccc2C)cc1C1CC1 (centres unmarked) [Example I-074, N'-[2-cyclopropyl-5-methyl-4-(2-methylphenyl)sulfinylphenyl]-N-ethyl-N-methylmethanimidamide] | 1.07 | 
15 | CCN(C)C=Nc1cc(Cl)c(S(=O)(=O)c2ccccc2)cc1C [Example I-048, N'-[4-(benzenesulfonyl)-5-chloro-2-methylphenyl]-N-ethyl-N-methylmethanimidamide] | 1.31 | 
16 | CCN(C)C=Nc1cc(C)c(S(=O)(=O)c2ccccc2C)cc1Br [Example I-065, N'-[2-bromo-5-methyl-4-(2-methylphenyl)sulfonylphenyl]-N-ethyl-N-methylmethanimidamide] | 1.93 | 
